Patent EP0959987B1, “USE OF PERFLUOROALKYL SUBSTITUTED PHOSPHORUS COMPOUNDS AS LIGANDS FOR HOMOGENEOUS CATALYSIS IN SUPERCRITICAL CARBON DIOXIDE” (Studiengesellschaft Kohle mbH, priority 1997, dated 1998)

Legend:
[1] = Solubility of the complexes in scCO2 by UV spectroscopy (Lambert-Beer law, reference data for THF solutions); assay type: physicochemical
Method: Die Löslichkeit der Komplexe IXa,b in scCO2 wurde mittels UV-Spektroskopie bestimmt und mit der Löslichkeit der unsubstituierten Stammverbindung [(dppe)Rh(hfacac)] IXe verglichen. IXe ist selbst bei hoher Dichte ρ und damit hoher Lösungskraft des scCO2 (Angew. Chem. 1978, 90, 748) nicht löslich (T = 50 °C, […]). Mit IXa und IXb werden hingegen bereits bei niedrigen Dichten (T= 50 °C, ρ = 90 bar, ρ = 0.55 g cm^-3) gelb-orange Lösungen erhalten. Aus den Absorptionsmaxima der UV-Spektren (siehe Abb. 1) läßt sich über das Lambert-Beer'sche-Gesetz mittels Vergleichsdaten für THF-Lösungen eine Sättigungskonzentration von 6.3 x 10^-5 M für IXa und 7.5 x 10^-5 M für IXb ermitteln. Zum Vergleich ist in Abb. 1 auch das UV-Spektrum des Komplexes IXf mit der Alkylphosphorverbindung 1,2-Bis(dicyclohexylphosphino)ethan (dcpe) aufgeführt. Die Löslichkeit von IXf in scCO2 beträgt unter identischen Bedingungen 1.1 x 10^-5 M, ist also um 5x bzw. 7x geringer als die von IXa und IXb. [formula]

[2] = scCO2, T = 50 °C, p = 345 bar; cited from earlier work

Compound | Löslichkeit in scCO2 [1] | maximale Löslichkeit [2] [µM]
O=C([CH-]C(=O)C(F)(F)F)C(F)(F)F.[Rh+].c1ccc(P(CCP(c2ccccc2)c2ccccc2)c2ccccc2)cc1 [IXe, [(dppe)Rh(hfacac)], reference compound] | nicht löslich | 
[(Duphos)Rh(η^4-C8H12)]^+ |  | 30
